How the values were obtained:
[1] = test system: corn; experiment: Test C preemergence; type: in vivo, Zea mays; conditions: for Plant response rating (scale of 0 to 100), Corn: Preemergence, 250 g ai/ha; for Corn plant response rating / Plant response rating, Corn: preemergence; for Plant response rating, Corn: 62 g ai/ha, scale 0 to 100, 0 = no effect, 100 = complete control
From the text: (§1) Seeds of plant species selected from blackgrass (Alopecurus myosuroides), ryegrass, Italian (Italian ryegrass, Lolium multiflorum), wheat (winter wheat, Triticum aestivum), galium (catchweed bedstraw, Galium aparine), corn (Zea mays), crabgrass, large (large crabgrass, Digitaria sanguinalis), foxtail, giant (giant foxtail, Setaria faberii), johnsongrass (Sorghum halepense), lambsquarters (Chenopodium album), morningglory (Ipomoea coccinea), nutsedge, yellow (yellow nutsedge, Cyperus esculentus), pigweed (redroot pigweed, Amaranthus retroflexus), ragweed (common ragweed, Ambrosia elation), soybean (Glycine max), barnyardgrass (Echinochloa crus-galli), oilseed rape (Brassica napus), waterhemp (common waterhemp, Amaranthus rudis), oat, wild (wild oat, Avena fatua), kochia (Kochia scoparia), Surinam grass (Brachiaria decumbens), foxtail, green (green foxtail, Setaria viridis), goosegrass (Eleusine indica), bromegrass, downy (downy bromegrass, Bromus tectorum), nightshade (eastern black nightshade, Solanum ptycanthum), cocklebur (common cocklebur, Xanthium strumarium), cupgrass, woolly (woolly cupgrass, Eriochloa villosa), bermudagrass (Cynodon dactylon), sunflower, (common oilseed sunflower, Helianthus annuus), Russian thistle (Salsola kali), and velvetleaf (Abutilon theophrasti) were planted into a blend of loam soil and sand and treated preemergence with test chemicals formulated in a non-phytotoxic solvent mixture which included a surfactant.
(§2) At the same time, plants selected from these crop and weed species and also chickweed (common chickweed, Stellaria media), canarygrass (littleseed canarygrass, Phalaris minor), and deadnettle (henbit deadnettle, Lamium amplexicaule), were planted in pots containing Redi-Earth® planting medium (Scotts Company, 14111 Scottslawn Road, Marysville, Ohio 43041) comprising spaghnum peat moss, vermiculite, wetting agent and starter nutrients and treated with postemergence applications of test chemicals formulated in the same manner. Plants ranged in height from 2 to 18 cm (1- to 4-leaf stage) for postemergence treatments. Treated plants and controls were maintained in a greenhouse for 13 to 15 days, after which time all species were compared to controls and visually evaluated. Plant response ratings, summarized in Table C, are based on a scale of 0 to 100 where 0 is no effect and 100 is complete control. A dash (-) response means no test result.

[2] = test system: nutsedge, yellow; experiment: Test C postemergence; type: in vivo, Cyperus esculentus; conditions: for Nutsedge, Yellow plant response rating: scale 0 to 100
From the text: as §1, §2

[3] = test system: wheat; experiment: Test A preemergence; type: in vivo, Triticum aestivum
Outline: (§3)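 Scoring was visual, on a scale where 100 means complete control and 0 means no effect, comparing treated with untreated plants around 10 days post-application. Compounds in surfactant-containing non-phytotoxic solvent were sprayed onto soil preemergence or onto one- to two-leaf seedlings (2–10 cm) postemergence.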

[4] = test system: pigweed; experiment: Test A postemergence; type: in vivo, Amaranthus retroflexus
Outline: as §3

[5] = test system: ragweed; experiment: Test C postemergence; type: in vivo, Ambrosia elation; conditions: postemergence
From the text: as §1, §2

[6] = test system: velvetleaf; experiment: Test A preemergence; type: in vivo, Abutilon theophrasti; conditions: 0 to 100 scale
Outline: as §3

[7] = test system: pigweed; experiment: Test C postemergence; type: in vivo, Amaranthus retroflexus; conditions: for Pigweed plant response rating: scale 0 to 100
From the text: as §1, §2

[8] = test system: galium; experiment: Test C preemergence; type: in vivo, Galium aparine; conditions: for Plant response rating (scale of 0 to 100), Galium: Preemergence, 250 g ai/ha; for Galium plant response rating / Plant response rating, Galium: preemergence; for Plant response rating, Galium: 62 g ai/ha, scale 0 to 100, 0 = no effect, 100 = complete control
From the text: as §1, §2

[9] = test system: ragweed; experiment: Test C preemergence; type: in vivo, Ambrosia elation; conditions: for Plant response rating (scale of 0 to 100), Ragweed: Preemergence, 250 g ai/ha; for Ragweed plant response rating / Plant response rating, Ragweed: preemergence; for Plant response rating, Ragweed: 62 g ai/ha, scale 0 to 100, 0 = no effect, 100 = complete control
From the text: as §1, §2

[10] = test system: blackgrass; experiment: Test C postemergence; type: in vivo, Alopecurus myosuroides; conditions: for Blackgrass plant response rating: scale 0 to 100
From the text: as §1, §2

[11] = test system: foxtail, giant; experiment: Test A preemergence; type: in vivo, Setaria faberii; conditions: 0 to 100 scale
Outline: as §3

[12] = test system: crabgrass, large; experiment: Test A preemergence; type: in vivo, Digitaria sanguinalis; conditions: 0 to 100 scale
Outline: as §3

[13] = test system: corn; experiment: Test A postemergence; type: in vivo, Zea mays
Outline: as §3

[14] = 31 g ai/ha, scale 0 to 100 (0 no effect, 100 complete control), 13 to 15 days
[15] = 125 g ai/ha, scale 0 to 100, 0 is no effect, 100 is complete control
[16] = postemergence, 250 g ai/ha, scale 0 to 100 (0 no effect, 100 complete control)
[17] = postemergence, 125 g ai/ha, scale 0 to 100, 0 no effect, 100 complete control
[18] = preemergence, 125 g ai/ha, visual injury, 0 to 100 scale, approx. 10 days
[19] = preemergence, 500 g ai/ha, visual injury after approx. 10 days, 0 to 100 scale (0 no effect, 100 complete control)
[20] = Postemergence, 500 g ai/ha, visual rating after approx. 10 days, 0 to 100 scale (0 no effect, 100 complete control)
[21] = postemergence, 125 g ai/ha, about 10 days, visual rating on 0 to 100 scale (0 no effect, 100 complete control)
[22] = 250 g ai/ha, scale 0 to 100 (0 no effect, 100 complete control)
[23] = 125 g ai/ha, scale 0 to 100, 0 no effect, 100 complete control
[24] = Preemergence, 500 g ai/ha, 0 no effect, 100 complete control
[25] = preemergence, 125 g ai/ha, visual injury, approx. 10 days
[26] = postemergence, 62 g ai/ha, scale 0 to 100, 0 no effect, 100 complete control
[27] = Preemergence, 1000 g ai/ha, 0 to 100 scale, 0 no effect, 100 complete control
[28] = Postemergence, 1000 g ai/ha, visual rating after approx. 10 days, 0 to 100 scale (0 no effect, 100 complete control)
[29] = 62 g ai/ha, scale 0 to 100, 0 no effect, 100 complete control
[30] = Preemergence, 1000 g ai/ha, 0 no effect, 100 complete control

CCONC(=O)c1cc(CC)n(Cc2cccc(OC(F)(F)F)c2)n1 [Compound 72]
Plant response rating (scale of 0 to 100), Corn [1]: 75 | Corn plant response rating [1, 14]: 30 | Plant response rating, Corn ([1]; 13 to 15 days): 45 | Corn plant response rating [1, 15]: 60 | Nutsedge, Yellow plant response rating ([2]; Postemergence, 31 g ai/ha): 0 | Nutsedge, Yellow plant response rating ([2]; postemergence, 62 g ai/ha): 0 | Plant response rating, Nutsedge, Yellow [2, 16]: 0 | Plant response rating, Nutsedge, Yellow [2, 17]: 0 | Wheat plant response rating [3, 18]: 50 | Wheat plant response rating [3, 19]: 10 | Pigweed plant response rating [4, 20]: 100 | Pigweed plant response rating [4, 21]: 90 | Ragweed plant response rating ([5]; 62 g ai/ha, scale 0 to 100): 5 | Plant response rating, Ragweed [5, 22]: 35 | Plant response rating, Ragweed [5, 23]: 20 | Velvetleaf plant response rating [6, 24]: 100 | Velvetleaf plant response rating [6, 25]: 70 | Pigweed plant response rating ([7]; Postemergence, 31 g ai/ha): 45 | Pigweed plant response rating ([7]; postemergence, 62 g ai/ha): 45 | Plant response rating, Pigweed [7, 16]: 65 | Plant response rating, Pigweed [7, 17]: 65 | Plant response rating (scale of 0 to 100), Galium [8]: 100 | Galium plant response rating [8, 14]: 70 | Plant response rating, Galium ([8]; 13 to 15 days): 98 | Galium plant response rating [8, 15]: 100 | Plant response rating (scale of 0 to 100), Ragweed [9]: 60 | Ragweed plant response rating [9, 14]: 0 | Plant response rating, Ragweed ([9]; 13 to 15 days): 50 | Ragweed plant response rating [9, 15]: 55 | Blackgrass plant response rating ([10]; Postemergence, 31 g ai/ha): 5 | Blackgrass plant response rating ([10]; postemergence, 62 g ai/ha): 10 | Plant response rating, Blackgrass [10, 16]: 40 | Plant response rating, Blackgrass [10, 17]: 40 | Foxtail, Giant plant response rating [11, 24]: 100 | Foxtail, Giant plant response rating [11, 25]: 70 | Crabgrass, Large plant response rating [12, 24]: 100 | Crabgrass, Large plant response rating [12, 25]: 90 | Corn plant response rating [13, 20]: 80 | Corn plant response rating [13, 21]: 70

CCCNC(=O)c1cc(CC)n(Cc2cccc(OC(F)(F)F)c2)n1 [Compound 27]
Nutsedge, Yellow plant response rating ([2]; Postemergence, 31 g ai/ha): 0 | Plant response rating, Nutsedge, Yellow [2, 16]: 0 | Plant response rating, Nutsedge, Yellow [2, 26]: 0 | Plant response rating, Nutsedge, Yellow [2, 17]: 0 | Wheat plant response rating [3, 27]: 20 | Pigweed plant response rating [4, 28]: 70 | Plant response rating, Ragweed [5, 22]: 10 | Plant response rating, Ragweed [5, 29]: 0 | Plant response rating, Ragweed [5, 23]: 5 | Velvetleaf plant response rating [6, 30]: 30 | Pigweed plant response rating ([7]; Postemergence, 31 g ai/ha): 40 | Plant response rating, Pigweed [7, 16]: 50 | Plant response rating, Pigweed [7, 26]: 40 | Plant response rating, Pigweed [7, 17]: 40 | Blackgrass plant response rating ([10]; Postemergence, 31 g ai/ha): 10 | Plant response rating, Blackgrass [10, 16]: 20 | Plant response rating, Blackgrass [10, 26]: 15 | Plant response rating, Blackgrass [10, 17]: 15 | Foxtail, Giant plant response rating [11, 30]: 90 | Crabgrass, Large plant response rating [12, 30]: 100 | Corn plant response rating [13, 28]: 60

CCc1cc(C(=O)NCC(F)(F)F)nn1Cc1cccc(OC(F)(F)F)c1 [Compound 20]
Nutsedge, Yellow plant response rating ([2]; Postemergence, 31 g ai/ha): 0 | Plant response rating, Nutsedge, Yellow [2, 16]: 0 | Plant response rating, Nutsedge, Yellow [2, 26]: 0 | Plant response rating, Nutsedge, Yellow [2, 17]: 0 | Wheat plant response rating [3, 27]: 20 | Pigweed plant response rating [4, 28]: 100 | Plant response rating, Ragweed [5, 22]: 25 | Plant response rating, Ragweed [5, 29]: 15 | Plant response rating, Ragweed [5, 23]: 15 | Velvetleaf plant response rating [6, 30]: 70 | Pigweed plant response rating ([7]; Postemergence, 31 g ai/ha): 60 | Plant response rating, Pigweed [7, 16]: 80 | Plant response rating, Pigweed [7, 26]: 75 | Plant response rating, Pigweed [7, 17]: 75 | Blackgrass plant response rating ([10]; Postemergence, 31 g ai/ha): 5 | Plant response rating, Blackgrass [10, 16]: 20 | Plant response rating, Blackgrass [10, 26]: 5 | Plant response rating, Blackgrass [10, 17]: 15 | Foxtail, Giant plant response rating [11, 30]: 100 | Crabgrass, Large plant response rating [12, 30]: 90 | Corn plant response rating [13, 28]: 30

CCc1cc(C(=O)NOC(C)C)nn1Cc1cccc(OC(F)(F)F)c1 [Compound 70]
Plant response rating (scale of 0 to 100), Corn [1]: 85 | Corn plant response rating [1, 14]: 40 | Plant response rating, Corn ([1]; 13 to 15 days): 60 | Corn plant response rating [1, 15]: 70 | Nutsedge, Yellow plant response rating ([2]; Postemergence, 31 g ai/ha): 0 | Plant response rating, Nutsedge, Yellow [2, 16]: 20 | Plant response rating, Nutsedge, Yellow [2, 26]: 0 | Plant response rating, Nutsedge, Yellow [2, 17]: 0 | Wheat plant response rating [3, 18]: 50 | Wheat plant response rating [3, 19]: 30 | Pigweed plant response rating [4, 20]: 100 | Pigweed plant response rating [4, 21]: 90 | Plant response rating, Ragweed [5, 22]: 65 | Plant response rating, Ragweed [5, 29]: 60 | Plant response rating, Ragweed [5, 23]: 65 | Velvetleaf plant response rating [6, 24]: 80 | Velvetleaf plant response rating [6, 25]: 40 | Pigweed plant response rating ([7]; Postemergence, 31 g ai/ha): 60 | Plant response rating, Pigweed [7, 16]: 75 | Plant response rating, Pigweed [7, 26]: 65 | Plant response rating, Pigweed [7, 17]: 70 | Plant response rating (scale of 0 to 100), Galium [8]: 98 | Galium plant response rating [8, 14]: 65 | Plant response rating, Galium ([8]; 13 to 15 days): 95 | Galium plant response rating [8, 15]: 98 | Plant response rating (scale of 0 to 100), Ragweed [9]: 40 | Ragweed plant response rating [9, 14]: 0 | Plant response rating, Ragweed ([9]; 13 to 15 days): 25 | Ragweed plant response rating [9, 15]: 30 | Blackgrass plant response rating ([10]; Postemergence, 31 g ai/ha): 0 | Plant response rating, Blackgrass [10, 16]: 25 | Plant response rating, Blackgrass [10, 26]: 5 | Foxtail, Giant plant response rating [11, 24]: 100 | Foxtail, Giant plant response rating [11, 25]: 90 | Crabgrass, Large plant response rating [12, 24]: 100 | Crabgrass, Large plant response rating [12, 25]: 100 | Corn plant response rating [13, 20]: 70 | Corn plant response rating [13, 21]: 60
